Data set [1] concerns Rattus norvegicus. Description: Anti-inflammatory activity in Sprague-Dawley rat model of […] Freund's adjuvant-induced arthritis assessed as inhibition of adjuvant-induced arthritis dosed through oral gavage daily once beginning on day 14 after adjuvant injection and continued till day 22 after adjuvant injection by displacement plethysmometry. It is filed as functional.

The subject of the next data set is Mus musculus. Briefly: Analgesic activity in ICR mouse assessed as reduction in number of abdominal constrictions dosed through oral gavage one hr before acetic acid challenge measured after 6 mins post acetic acid challenge by acetic acid-induced writhing test. It is filed as functional. The following applies: Abdomen, 0.1 h.
Data set [2] is described as follows: Drug level in Sprague-Dawley rat blood treated with 4-(3-Chlorophenyl)-2,2-dimethyl-5-{4-(methylsulfinyl)phenyl}-3(2H)-furanone at 10 mg/kg dosed through oral gavage assessed as sulfoxide to sulfonyl bio-transformation by measuring compound level measured after 24 to 48 hrs by HPLC method. The following applies: in vivo. In kind it is ADME, organism-based.
In data set [3] the test system is Rattus norvegicus. Briefly: Anti-inflammatory activity in Sprague-Dawley rat assessed as inhibition of carrageenan-induced foot edema at 3 mg/kg dosed through oral gavage 1 hr before carrageenan challenge and measured 3 hrs after carrageenan challenge. In kind it is functional. On the technique in general: In the carrageenan paw model, swelling and tenderness develop within hours.

The target in data set [4] is T1, Prostaglandin G/H synthase 1 (Mus musculus, UniProt P22437).
T1 sequence (P22437 whole entry): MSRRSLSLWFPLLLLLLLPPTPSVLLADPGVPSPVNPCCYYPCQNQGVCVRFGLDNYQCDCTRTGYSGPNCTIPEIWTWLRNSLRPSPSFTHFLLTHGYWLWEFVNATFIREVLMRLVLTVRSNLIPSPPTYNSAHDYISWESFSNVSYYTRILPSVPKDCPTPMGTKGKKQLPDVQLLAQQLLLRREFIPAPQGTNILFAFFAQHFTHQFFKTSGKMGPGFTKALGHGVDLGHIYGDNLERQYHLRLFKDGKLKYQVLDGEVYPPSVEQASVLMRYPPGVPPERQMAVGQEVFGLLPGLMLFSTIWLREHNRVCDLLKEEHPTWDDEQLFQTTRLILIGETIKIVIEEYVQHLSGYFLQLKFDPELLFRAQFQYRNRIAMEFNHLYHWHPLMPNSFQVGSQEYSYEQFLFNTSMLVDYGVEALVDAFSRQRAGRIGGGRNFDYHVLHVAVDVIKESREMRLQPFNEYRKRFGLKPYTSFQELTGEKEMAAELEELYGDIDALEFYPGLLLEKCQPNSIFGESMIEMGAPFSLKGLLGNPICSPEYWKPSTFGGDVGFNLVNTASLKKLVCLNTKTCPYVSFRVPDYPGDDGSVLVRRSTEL
Description: Inhibition of COX1 in C57BL/6 mouse peritoneal macrophages assessed as reduction in PGE2 formation pre-incubated for 2 hrs followed by arachidonic acid addition and measured after 10 mins by radio-immuno assay or enzyme-immunoassay.

A short description of data set [5]: Drug metabolism in Sprague-Dawley rat blood assessed as sulfoxide to sulfonyl bio-transformation by measuring compound-62 level at 10 mg/kg dosed through oral gavage measured after 24 to 48 hrs by HPLC method. In kind it is ADME, organism-based. The conditions noted are these: in vivo.
Data set [6] has as its target T2, Prostaglandin G/H synthase 2 (Mus musculus, UniProt Q05769).
T2 sequence (Q05769 whole entry): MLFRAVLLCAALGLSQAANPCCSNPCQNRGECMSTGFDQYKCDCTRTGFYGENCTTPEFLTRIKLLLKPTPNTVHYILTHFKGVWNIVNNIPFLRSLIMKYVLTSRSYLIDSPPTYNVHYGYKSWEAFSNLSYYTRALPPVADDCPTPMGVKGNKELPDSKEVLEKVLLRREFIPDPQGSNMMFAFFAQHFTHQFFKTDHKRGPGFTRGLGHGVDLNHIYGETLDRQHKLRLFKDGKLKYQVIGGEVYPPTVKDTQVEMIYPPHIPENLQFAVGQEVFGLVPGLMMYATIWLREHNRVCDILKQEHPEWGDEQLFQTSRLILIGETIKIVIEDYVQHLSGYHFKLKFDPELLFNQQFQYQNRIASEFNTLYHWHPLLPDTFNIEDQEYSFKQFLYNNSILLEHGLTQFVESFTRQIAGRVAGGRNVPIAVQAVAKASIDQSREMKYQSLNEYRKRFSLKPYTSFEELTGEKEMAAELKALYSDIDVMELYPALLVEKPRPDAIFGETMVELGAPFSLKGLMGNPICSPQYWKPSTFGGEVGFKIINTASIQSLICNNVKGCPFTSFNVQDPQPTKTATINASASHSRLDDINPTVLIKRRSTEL
Briefly: Inhibition of COX2 in C57BL/6 mouse peritoneal macrophages assessed as reduction in PGE2 formation pre-incubated for 2 hrs before LPS stimulation for 16 hrs followed by arachidonic acid addition and measured after 10 mins in presence of 500 uM aspirin by radio-immuno assay or enzyme-immunoassay.

The structures appear in SMILES notation.

This is an account of results in ChEMBL document CHEMBL3882732, “4,5-diaryl-3(2H)-furanone derivatives as cyclooxygenase-2 inhibitors” (2002).

The term ED50 denotes the dose that gives a 50% effect, or the effect in half of the subjects. What is called inhibition in vivo is the drop in the measured response relative to a control, in per cent. For orientation: IC50 means the concentration that inhibits the measured activity by half.

As to `CC1(C)OC(c2ccc(S(C)(=O)=O)cc2)=C(c2cc(F)cc(F)c2)C1=O`, the ED50 with Rattus norvegicus [1] stood at 0.03 mg/kg.

For the compound `CC1(C)OC(c2ccc(S(C)(=O)=O)cc2)=C(c2cccc(F)c2)C1=O`, the results for the ED50 in the data set on Mus musculus and in the data set with Rattus norvegicus [1] were 8.3 mg/kg and 0.07 mg/kg, respectively. With `CC1(C)OC(c2ccc(S(C)(=O)=O)cc2)=C(c2cccc(Cl)c2)C1=O`, in data set [2], the Drug metabolism entry is listed as “Metabolite_Detected”. As for `CC1(C)OC(c2ccc(S(N)(=O)=O)cc2)=C(c2cccc(F)c2)C1=O` [POLMACOXIB], the ED50 with Mus musculus is 12.3 mg/kg; in the data set on Rattus norvegicus [1], 0.02 mg/kg.

On to `CC1(C)OC(c2ccc(S(N)(=O)=O)cc2F)=C(c2ccc(F)cc2)C1=O`, for which, in the data set on Rattus norvegicus [1], the ED50 worked out at 0.09 mg/kg. On to `CC1(C)OC(c2ccc(S(N)(=O)=O)cc2)=C(c2cccc(Cl)c2)C1=O`, for which the 50% effective dose (ED50) with Rattus norvegicus [1] is 0.03 mg/kg. On to `CC1(C)OC(c2ccc(S(N)(=O)=O)c(F)c2)=C(c2ccc(F)cc2F)C1=O`, for which the inhibition in vivo at 3 mg/kg with Rattus norvegicus [3] came out at 32%. For the compound `C[S+]([O-])c1ccc(C2=C(c3cccc(F)c3)C(=O)C(C)(C)O2)cc1` (stereo not drawn), the IC50 in data set [4] was 29 µM.

For `C[S+]([O-])c1ccc(C2=C(c3cccc(Cl)c3)C(=O)C(C)(C)O2)cc1` (stereo not drawn), the Drug metabolism result in data set [5] is reported as “Metabolite_Detected”. With `C[S+]([O-])c1ccc(C2=C(c3ccc(F)cc3)C(=O)C(C)(C)O2)cc1` (stereo not drawn), the IC50 in data set [6] was 8.71 µM; in data set [4] it was 87.1 µM.

`COc1ccc2c(c1)c(CC(=O)O)c(C)n2C(=O)c1ccc(Cl)cc1` [INDOMETHACIN]: the ED50 in the data set on Mus musculus came out at 7.4 mg/kg. `CC1(C)OC(c2ccc(S(C)(=O)=O)cc2)=C(c2cccc(C(F)(F)F)c2)C1=O`: the ED50 in the data set on Rattus norvegicus [1] worked out at 0.06 mg/kg.

Take `CC(C)c1ccc(C2=C(c3ccc(S(C)(=O)=O)cc3)OC3(CCCC3)C2=O)cc1`: in data set [4], the IC50 is 24.4 µM. Regarding `CC(=O)c1cccc(C2=C(c3ccc(S(N)(=O)=O)cc3)OC(C)(C)C2=O)c1`, the IC50 in data set [6] is 0.0337 µM; in data set [4], 8.98 µM.
